Among the test systems are 786-0 renal; COLO 205 colon; HCT-116 colon; HS 578T breast; M14 melanoma; MDA-N; MOLT-4 leukemia; NCI-H460 lung; OVCAR-5 ovarian; SR leukemia; UACC-257 melanoma; UO-31 renal; DU-145 prostate; SF-268 CNS; SF-539 CNS; UACC-62 melanoma.
Common to all, as to assay: inhibition of tumour cell growth, NCI panel, 48 h

SMILES strings stand for the structures.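 Where inhibition never reached the appropriate level, the endpoint shown equals the highest concentration tested. Otherwise, values were interpolated linearly from a five-concentration, 48-hour dose response in 96-well plates. At the TGI there is no net growth.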

For the molecule `c1ccc(N=C2C(=Nc3ccccc3)N(C3CCCCC3)C(=NC3CCCCC3)N2c2ccccc2)cc1`, the TGI with 786-0 renal, with COLO 205 colon, in the test with HCT-116 colon, with HS 578T breast, with M14 melanoma and in the test with MDA-N was greater than 100 µM in each case. In addition, the TGI in the test on MOLT-4 leukemia, in the test on NCI-H460 lung, with OVCAR-5 ovarian, in the test on SR leukemia, in the test with UACC-257 melanoma and in the test with UO-31 renal was greater than 100 µM each time.
As to `COc1ccc(C(=O)/C=C/c2ccc(OCC#N)cc2)cc1OC`, the TGI in the test with 786-0 renal was 86.7 µM; in the test on COLO 205 colon, 24.2 µM; with DU-145 prostate, 23.8 µM; with HCT-116 colon, 17.2 µM; with HS 578T breast it was greater than 100 µM; with M14 melanoma, 37.3 µM. Further, the TGI was 63.6 µM in the test on MOLT-4 leukemia; greater than 100 µM in the test on NCI-H460 lung; 85.3 µM in the test with SF-268 CNS; 36.9 µM with SF-539 CNS; 61.2 µM in the test on SR leukemia; 36.7 µM in the test with UACC-62 melanoma. Further, the TGI in the test on UO-31 renal was 32.6 µM.
With `c1ccc2c(c1)ncn2CCn1ccnc1`, the TGI with 786-0 renal, with COLO 205 colon, in the test with DU-145 prostate, in the test with HS 578T breast, with M14 melanoma and in the test on MOLT-4 leukemia was greater than 100 µM each time. The TGI in the test with NCI-H460 lung, with OVCAR-5 ovarian, in the test on SF-268 CNS, in the test on SF-539 CNS, in the test on UACC-62 melanoma and in the test with UO-31 renal was greater than 100 µM each time.
With `CC1(C)CC(=O)C(CC2C(=O)c3ccccc3C2=O)C(=O)C1C(=O)C(=O)Nc1cccc2ccc(O)cc12` (configuration not stated), the TGI in the test with 786-0 renal, with COLO 205 colon, in the test with DU-145 prostate, with HCT-116 colon, in the test on HS 578T breast and in the test on M14 melanoma was greater than 100 µM throughout. Besides, the TGI with MOLT-4 leukemia, with NCI-H460 lung, in the test with OVCAR-5 ovarian, in the test on SF-268 CNS, with SF-539 CNS and in the test with UACC-257 melanoma was greater than 100 µM in each case. The TGI with UACC-62 melanoma and with UO-31 renal was greater than 100 µM in each case.
`CCNC(=S)Nc1c(C#N)c2n(c1C(=O)OCC)CCCCC2`: the TGI with 786-0 renal, in the test with COLO 205 colon, in the test with DU-145 prostate, in the test on HCT-116 colon, with HS 578T breast and in the test with M14 melanoma was greater than 100 µM each time. For the same molecule, the TGI with MOLT-4 leukemia, in the test on NCI-H460 lung, with SF-268 CNS, in the test on SF-539 CNS, in the test with SR leukemia and in the test on UACC-257 melanoma was greater than 100 µM each time. Besides, the TGI in the test with UACC-62 melanoma and in the test with UO-31 renal was greater than 100 µM in each case.
With `Nc1cccc(/C=C/CN2CCN(CCOC(c3ccccc3)c3ccccc3)CC2)c1`, the TGI in the test with 786-0 renal turned out to be 30.5 µM; in the test with COLO 205 colon, 20.9 µM; in the test on DU-145 prostate, 26.4 µM; in the test on HCT-116 colon it was 25.4 µM; with HS 578T breast it was 48 µM; in the test with M14 melanoma, 25.9 µM. Besides, the TGI in the test on MOLT-4 leukemia was 19.2 µM; with NCI-H460 lung, 27.7 µM; with OVCAR-5 ovarian, 30.5 µM; with SF-268 CNS, 35.7 µM; in the test on SF-539 CNS, 31.7 µM; in the test with SR leukemia it was 17.4 µM. The results for the TGI with UACC-257 melanoma, with UACC-62 melanoma and in the test on UO-31 renal were 31.1 µM, 31.7 µM and 27.4 µM, respectively.
Take `c1ccc2c(c1)ccc1nc3ccccn3c12`: the TGI in the test with 786-0 renal, in the test with COLO 205 colon, with DU-145 prostate, with HS 578T breast, in the test on M14 melanoma and in the test on MOLT-4 leukemia was greater than 100 µM each time. Besides, the TGI in the test with NCI-H460 lung, in the test on OVCAR-5 ovarian, in the test with SF-268 CNS, in the test with SF-539 CNS, in the test on SR leukemia and in the test on UACC-257 melanoma was greater than 100 µM in each case. Besides, the TGI in the test with UACC-62 melanoma and in the test on UO-31 renal was greater than 100 µM throughout.
On to `COC(=O)c1ccc(-n2c(C)nc(=O)c(-c3ccccc3)c2C)cc1`, for which the TGI in the test on 786-0 renal, with COLO 205 colon, in the test with DU-145 prostate, with HCT-116 colon, with HS 578T breast and in the test on M14 melanoma was greater than 100 µM in each case. For the same molecule, the TGI with MOLT-4 leukemia, with NCI-H460 lung, in the test with OVCAR-5 ovarian, in the test on SF-268 CNS, with SF-539 CNS and with SR leukemia was greater than 100 µM throughout. The TGI with UACC-257 melanoma and in the test with UO-31 renal was greater than 100 µM in each case.
`O=C(OCC(Cl)(Cl)Cl)N1CC[C@@H](C2CCCCC2)C1`: the TGI with 786-0 renal is 43 µM; with COLO 205 colon, 56.3 µM; with DU-145 prostate it was greater than 100 µM; in the test with HCT-116 colon it was 80.7 µM; in the test with M14 melanoma, 96.5 µM; in the test on MDA-N, greater than 100 µM. The TGI with MOLT-4 leukemia is 56.4 µM; with NCI-H460 lung it was 43.8 µM; with OVCAR-5 ovarian, 50.6 µM; with SF-268 CNS, 34.3 µM; in the test on SR leukemia, 69.4 µM; with UACC-257 melanoma, greater than 100 µM. The figures for the TGI with UACC-62 melanoma and with UO-31 renal were 85.5 µM and 40.2 µM, respectively.
As for `O=C(Nc1sccc1S(=O)(=O)c1ccc(Cl)cc1)c1ccc(Cl)cc1Cl`, the TGI in the test with 786-0 renal, with COLO 205 colon, in the test with DU-145 prostate, in the test on HCT-116 colon, in the test on HS 578T breast and in the test on M14 melanoma was greater than 100 µM each time. Besides, the TGI in the test with MOLT-4 leukemia, in the test on NCI-H460 lung, in the test on OVCAR-5 ovarian, in the test with SF-268 CNS, in the test on SF-539 CNS and with SR leukemia was greater than 100 µM each time. For the same molecule, the TGI with UACC-257 melanoma, in the test with UACC-62 melanoma and in the test on UO-31 renal was greater than 100 µM each time.

(Values after PubChem BioAssay (NCI).)
